For one series, the system named is M-O7e. The experiment in a line: Differentiation assay, CD11b / annexin-V flow cytometry. Conditions: MO7e cell line; replicates 1-3 (Figure 2A). The class given is cell-based. The procedure: (§1) Next, the cells were washed twice with phosphate-buffered saline (PBS) and resuspended in 1X Binding Buffer at a concentration of 1 × 10^6 cells/mL. An 8-µL aliquot of APC-CD11b (BD Pharmingen, Franklin Lakes, NJ, USA) and 1 µL of FITC annexin-V (AV) (BD Pharmingen, Franklin Lakes, NJ, USA) antibodies were added and incubated for 15 min at room temperature in the dark. Finally, after the addition of 400 µL of 1X Binding Buffer to each tube, samples were collected on a BD FACSCanto flow cytometer (Becton Dickinson, San Jose, CA, USA) and analyzed using FlowJo software.

The next series has as its system HEL. Described as above. The class given is cell-based. The conditions noted are these: HEL cell line; replicates 1-3 (Figure 2A). The procedure:
as §1

In another series the test system is OCI-AML2. The series is described as above. The conditions noted are these: OCI-AML-2 cell line; replicates 1-3 (Figure 2A). It is filed as cell-based. The procedure: as §1
The next series relates to UT-7. The description is as above. It is filed as cell-based. Conditions: UT7 cell line; replicates 1-3 (Figure 2A). The procedure: as §1
In another series the test system is KASUMI-1. Described as above. It is filed as cell-based. Conditions: KASUMI-1 cell line; replicates 1-3 (Figure 2A). The procedure:
as §1

For a further series, the system named is HL-60. The experiment in a line: Differentiation-apoptosis assay, CD11b / annexin-V / Sytox Green / myeloid markers flow cytometry. The class given is cell-based, human. More on the design: Cell viability (%): concentration or dose not given beside the values. Conditions: for Annexin V (%) Replicate 1 / Annexin V (%) Replicate 2 / Annexin V (%) Replicate 3 / CD11b (%) Replicate 1 / CD11b (%) Replicate 2 / CD11b (%) Replicate 3: HL-60, daily 25% GI50, 48 h. Put shortly: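 HL-60 cells were stained for the myeloid differentiation marker CD11b, with annexin-V and Sytox Green marking apoptosis and cell death. Cells were washed in PBS and resuspended at 1 × 10^6 cells/mL in binding buffer; marker staining of 1 million cells was for 30 min at room temperature in the dark, followed by red-cell lysis. Readout was flow cytometry.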
On the technique in general: In flow cytometry, cells or beads pass a laser one at a time.

Series [1] deals with primary AML patient samples. The experiment in a line: Differentiation assay, CD11b flow cytometry in primary samples. The conditions noted are these: for CD11b-positive cells (%): daily 48 h. The class given is cell-based, human. The procedure: as §1
Peripheral blood (PB) specimens were obtained from preliminarily diagnosed AML patients who had not received any treatment before specimens were collected. All patients gave informed consent for their participation in this study, which was approved by the Clinical Research Ethics Committee of Clínica Universidad de Navarra. Written informed consent was obtained from each participant. PB was mixed with an ammonium chloride-potassium (ACK) buffer lysis (0.15 mol/L NH4Cl, 10 mmol/L KHCO3, 0.1 mmol/L ethylenediaminetetraacetic acid, pH 7.2) at a 1:2 volume ratio by gentle inversion, incubated for 10 min and centrifuged at 200 g for 10 min. The cell pellet was washed twice with PBS and finally resuspended in EGM2 medium (Cambrex Bioscience, Walkersville, MD). EGM2 contains 2% fetal calf serum, hydrocortisone, heparin, antibiotics, epidermal growth factor, human fibroblast growth factor, insulin-like growth factor, vascular endothelial growth factor, and ascorbic acid. The cells were plated at 1 × 10^6 cells/mL and treated daily with 200 and 500 nM of CM-444 and CM-1758 for 48 h. Next, the differentiation assay was performed as described above.

The subject of the next series is ML-2. The experiment in a line: Proteome analysis (LC-MS/MS). The class given is cell-based, human. The conditions noted are these: ML-2, 25% GI50, 12 h. The procedure: After cooling down, lysates were incubated at 25 °C with 10 units of DNAse (Benzonase, Merk) and sonicated for 15 min in a Bioruptor for DNA shearing. Protein concentration was determined using microBCA, using BSA as standard. […] LysC, Wako). […] Peptides (500 μg) were labeled with Thermo Scientific […] Isobaric reagents for 1 h at 25 C. […] The final mixture was desalted using a 500 mg Sep-Pak C18t cartridge (Waters) and dried prior to high pH reverse phase HPLC pre-fractionation. Labeled peptides were fractionated offline through a high pH reverse phase chromatography using an Ultimate 3000 HPLC system equipped with a sample collector. Briefly, peptides were dissolved in 1200 μL of Buffer A (10 mM NH4OH) and loaded onto a XBridge BEH130 C18 column (3.5 μm, 250 mm length and 3.5 mm ID, Waters). […] One-minute fractions (500 μL) from minute 15 to 65 were collected and neutralized with 10% formic acid. […] Pooled fractions were snap-frozen and lyophilized. LC-MS/MS was done by coupling an UltiMate 3000 RSLCnano LC system to an Orbitrap Exploris 480 mass spectrometer (Thermo Fisher Scientific). […] The mass spectrometer was operated in a data-dependent mode, with an automatic switch between MS and MS/MS scans using a top 15 method. (Intensity threshold ≥ 1e4, dynamic exclusion of 20 sec and excluding charges unassigned, +1 and ≥ +7). MS spectra were acquired from 350 to 1500 m/z with a resolution of 60,000 FMHW (200 m/z). Ion peptides were isolated using a 0.7 Th window and fragmented using higher-energy collisional dissociation (HCD) with a normalized collision energy NCE of 36. MS/MS spectra were acquired with a fixed first mass of 120 m/z and a resolution of 45,000 FMHW (200 m/z). […] For total protein analysis, raw files were processed with MaxQuant (v 2.4.9.0) using the standard settings against the same protein database. […] Briefly, proteins/sites with less than eighteen valid values were filtered out. Then, a global normalization of log2-transformed intensities across samples was performed using the LOESS function. Differential analysis was done using the empirical Bayes statistics Limma. […] The FDR was estimated to be below 2% by Benjamini-Hochberg.

Where [2] appears, read: HL-60, 48 h treatment, replicates 1-3 (Suppl. Fig. 5A).

This is an account of results in article PMC11219871, “Epigenetic-based differentiation therapy for Acute Myeloid Leukemia” (Nature Communications, 2024).

The structures appear in SMILES notation. Values joined by “and” are separate entries in the source; they are usually repeats but may differ in a detail not shown here. Identical values can stand only once.

For `CC1=C(/C=C/C(C)=C/C=C/C(C)=C/C(=O)O)C(C)(C)CCC1` [ATRA, all-trans retinoic acid, reference compound], the “CD11b (%)” value with M-O7e is 0.25% and 2.3% and 4.5%; with HEL, 1.5% and 0.9% and 3.54%; in the series on OCI-AML2, 15.2% and 20.2% and 14.1%; with UT-7 it was 5.9% and 6.4% and 10.05%; with KASUMI-1 it was 1.2% and 9.5% and 4.6%; in the series with HL-60 (HL-60 cell line, replicates 1-3 (Figure 2A)), 10.3% and 15.8% and 12.06%. In addition, the “CD11b (%)” value in series [1] (primary AML patient sample 1 (Figure 2C)) is on record as 26.1%; in series [1] (primary AML patient sample 2 (Figure 2C)) it was 17.45%; in series [1] (primary AML patient sample 3 (Figure 2C)), 10.26%; in series [1] (primary AML patient sample 4 (Figure 2C)) it was 25.36%; in series [1] (primary AML patient sample 5 (Figure 2C)) it was 15.2%; in series [1] (primary AML patient sample 6 (Figure 2C)), 16.3%. The entries for the “CD11b (%)” value in series [1] (primary AML patient sample 7 (Figure 2C)) and in series [1] (primary AML patient sample 8 (Figure 2C)) were 29.3% and 13.25%, respectively. The “Annexin V (%) Replicate 1” value in the series with HL-60 is 0.34%. In addition, in the series on HL-60, the “Annexin V (%) Replicate 2” value came to 0.98%. In addition, the “Annexin V (%) Replicate 3” value in the series with HL-60 is reported as 0.97%. Moreover, the “CD11b (%) Replicate 1” value with HL-60 worked out at 10.12%. Also, the “CD11b (%) Replicate 2” value in the series with HL-60 amounted to 15.48%. Besides, in the series with HL-60, the “CD11b (%) Replicate 3” value was 12.56%. Also, the “CD11b-positive cells (%)” value was found to be 26.1% in series [1] (sample AML-1, 2 µM); 17.5% in series [1] (sample AML-2, 2 µM); 10.3% in series [1] (sample AML-3, 2 µM); 25.4% in series [1] (sample AML-4, 2 µM); 15.2% in series [1] (sample AML-5, 2 µM); 16.3% in series [1] (sample AML-6, 2 µM). Moreover, the “CD11b-positive cells (%)” value in series [1] (sample AML-7, 2 µM) is 29.3%; in series [1] (sample AML-8, 2 µM), 13.3%.

Turning to `Cc1[nH]c2ccccc2c1CCNCc1ccc(/C=C/C(=O)NO)cc1` [Panobinostat, reference compound], in the series with HL-60 (setting [2]), the “CD11b (%)” value was 10.8% and 18.5%; the “Cell viability (%)” value was 45.2% and 38.6% and 44.9%. Moreover, in the series on HL-60, the “Annexin V (%) Replicate 1” value was 20.30%, the “Annexin V (%) Replicate 2” value was found to be 24.90%, the “Annexin V (%) Replicate 3” value is listed as 22.00% and the “CD11b (%) Replicate 1” value is 12.07%. Also, in the series on HL-60, the “CD11b (%) Replicate 2” value stood at 18.60% and the “CD11b (%) Replicate 3” value came out at 12.38%. The “proteins significantly regulated, of 8342 quantified” value in the series on ML-2 amounted to 5.8%.

Regarding `O=C(CCCCCCC(=O)Nc1ccccc1)NO` [Vorinostat, reference compound], in the series on HL-60 (setting [2]), the “CD11b (%)” value is 30.8% and 39.8% and 27.7%; the “Cell viability (%)” value was 74.2% and 83.6% and 75%. The “proteins significantly regulated, of 8342 quantified” value with ML-2 worked out at 2.7%.
